Results: patent US20260285850A1, “SUBSTITUTED OXAZOLIDINONES AND IMIDAZOLINONES AS HERBICIDES” (FMC CORPORATION, priority 2023, published 2026)

What was measured:
Assay type in all cases: in vivo
[1] = tested on: oat, wild (wild oat, Avena fatua); test: Test A preemergence soil spray, visual injury rating 0-100; conditions: 10 days, 0 = no effect, 100 = complete control
Method in brief: (§1)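 Greenhouse test: loam/sand pots received a surfactant-containing formulation, as a preemergence directed soil spray or a postemergence spray on young plants. Injury was judged visually at day 10 relative to untreated controls.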

[2] = tested on: ragweed (common ragweed, Ambrosia artemisiifolia); test: as above; conditions: 10 days, 0 = no effect, 100 = complete control
Method in brief: as §1

soybean (Glycine max) [3] = test: as above; conditions: 10 days, 0 = no effect, 100 = complete control
Method in brief: as §1

[4] = tested on: blackgrass (Alopecurus myosuroides); test: as above; conditions: 10 days, 0 = no effect, 100 = complete control
Method in brief: as §1

[5] = tested on: ryegrass, Italian (italian ryegrass, Lolium multiflorum); test: as above; conditions: 10 days, 0 = no effect, 100 = complete control
Method in brief: as §1

[6] = tested on: palmer (palmer amaranth, palmer pigweed, Amaranthus palmeri); test: as above; conditions: 10 days, 0 = no effect, 100 = complete control
Method in brief: as §1

[7] = tested on: wheat (Triticum aestivum); test: as above; conditions: 10 days, 0 = no effect, 100 = complete control
Method in brief: as §1

kochia (Bassia scoparia) [8] = test: as above; conditions: 10 days, 0 = no effect, 100 = complete control
Method in brief: as §1

[9] = tested on: barnyardgrass (Echinochloa crus-galli); test: as above; conditions: 10 days, 0 = no effect, 100 = complete control
Method in brief: as §1

corn (Zea mays) [10] = test: as above; conditions: 10 days, 0 = no effect, 100 = complete control
Method in brief: as §1

[11] = tested on: green foxtail (Setaria viridis); test: as above; conditions: 10 days, 0 = no effect, 100 = complete control
Method in brief: as §1

[12] = tested on: ducksalad (Heteranthera limosa); test: Test B flooded paddy test, visual plant response rating 0-100; conditions: 250 g ai/ha, Flood, applied to paddy water, evaluated after 13 days
Method in brief: (§2)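 Plants were grown to the 2-leaf stage, then pots were flooded to 3 cm above the soil and test compounds were applied directly into the paddy water. Water depth was held there throughout; after 13 days in a greenhouse, injury was scored visually against untreated controls.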

rice (Oryza sativa) = test: as above; conditions: 250 g ai/ha, Flood, applied to paddy water, evaluated after 13 days
Method in brief: as §2

[13] = tested on: barnyardgrass (Echinochloa crusgalli); test: as above; conditions: 250 g ai/ha, Flood, applied to paddy water, evaluated after 13 days
Method in brief: as §2

[14] = tested on: sedge, umbrella (small-flower umbrella sedge, Cyperus difformis); test: as above; conditions: 250 g ai/ha, Flood, applied to paddy water, evaluated after 13 days
Method in brief: as §2

[15] = tested on: oat, wild (wild oat, Avena fatua); test: Test A postemergence application, visual injury rating 0-100; conditions: 10 days
Method in brief: as §1

[16] = tested on: ragweed (common ragweed, Ambrosia artemisiifolia); test: as above; conditions: 10 days
Method in brief: as §1

soybean (Glycine max) [17] = test: as above; conditions: 10 days
Method in brief: as §1

[18] = tested on: horseweed (Erigeron canadensis); test: as above; conditions: 10 days
Method in brief: as §1

[19] = tested on: blackgrass (Alopecurus myosuroides); test: as above; conditions: 10 days
Method in brief: as §1

[20] = tested on: ryegrass, Italian (italian ryegrass, Lolium multiflorum); test: as above; conditions: 10 days
Method in brief: as §1

[21] = tested on: palmer (palmer amaranth, palmer pigweed, Amaranthus palmeri); test: as above; conditions: 10 days
Method in brief: as §1

[22] = tested on: wheat (Triticum aestivum); test: as above; conditions: 10 days
Method in brief: as §1

kochia (Bassia scoparia) [23] = test: as above; conditions: 10 days
Method in brief: as §1

[24] = tested on: barnyardgrass (Echinochloa crus-galli); test: as above; conditions: 10 days
Method in brief: as §1

[25] = tested on: galium (catchweed bedstraw, Galium aparine); test: as above; conditions: 10 days
Method in brief: as §1

corn (Zea mays) [26] = test: as above; conditions: 10 days
Method in brief: as §1

[27] = tested on: green foxtail (Setaria viridis); test: as above; conditions: 10 days
Method in brief: as §1

[28] = 31 g ai/ha, postemergence, 0 = no effect, 100 = complete control
[29] = Postemergence, 125 g ai/ha, 0 is no effect, 100 is complete control

CCOC(=O)C1C=CC(NC(=O)C2(C)CN(c3cc(F)cc(Cl)c3)C(=O)O2)C1 (stereo not shown) [Compound 3]
Oat, Wild plant response rating (0-100) ([1]; 31 g ai/ha): 10 | Oat, Wild plant response rating (0 to 100 scale) ([1]; 125 g ai/ha): 90 | Ragweed plant response rating (0-100) ([2]; 31 g ai/ha): 10 | Ragweed plant response rating (0 to 100 scale) ([2]; 125 g ai/ha): 30 | Soybean plant response rating (0-100) (soybean (Glycine max) [3]; 31 g ai/ha): 20 | Soybean plant response rating (0 to 100 scale) (soybean (Glycine max) [3]; 125 g ai/ha): 80 | Blackgrass plant response rating (0-100) ([4]; 31 g ai/ha): 0 | Blackgrass plant response rating (0 to 100 scale) ([4]; 125 g ai/ha): 70 | Ryegrass, Italian plant response rating (0-100) ([5]; 31 g ai/ha): 50 | Ryegrass, Italian plant response rating (0 to 100 scale) ([5]; 125 g ai/ha): 90 | Amaranth, Palmer plant response rating (0-100) ([6]; 31 g ai/ha): 80 | Amaranth, Palmer plant response rating (0 to 100 scale) ([6]; 125 g ai/ha): 100 | Wheat plant response rating (0-100) ([7]; 31 g ai/ha): 50 | Wheat plant response rating (0 to 100 scale) ([7]; 125 g ai/ha): 90 | Kochia plant response rating (0-100) (kochia (Bassia scoparia) [8]; 31 g ai/ha): 70 | Kochia plant response rating (0 to 100 scale) (kochia (Bassia scoparia) [8]; 125 g ai/ha): 100 | Barnyardgrass plant response rating (0-100) ([9]; 31 g ai/ha): 90 | Barnyardgrass plant response rating (0 to 100 scale) ([9]; 125 g ai/ha): 100 | Corn plant response rating (0-100) (corn (Zea mays) [10]; 31 g ai/ha): 50 | Corn plant response rating (0 to 100 scale) (corn (Zea mays) [10]; 125 g ai/ha): 50 | Foxtail, Green plant response rating (0-100) ([11]; 31 g ai/ha): 30 | Foxtail, Green plant response rating (0 to 100 scale) ([11]; 125 g ai/ha): 100 | Plant response rating, Ducksalad (0 to 100 scale, 0 is no effect and 100 is complete control) [12]: 90 | Plant response rating, Rice (0 to 100 scale, 0 is no effect and 100 is complete control) (rice (Oryza sativa)): 70 | Plant response rating, Barnyardgrass (0 to 100 scale, 0 is no effect and 100 is complete control) [13]: 95 | Plant response rating, Sedge, Umbrella (0 to 100 scale, 0 is no effect and 100 is complete control) [14]: 100 | Oat, Wild plant response rating (0-100) [15, 28]: 90 | Oat, Wild plant response rating (0 to 100 scale) [15, 29]: 90 | Ragweed plant response rating (0-100) [16, 28]: 50 | Ragweed plant response rating (0 to 100 scale) [16, 29]: 80 | Soybean plant response rating (0-100) (soybean (Glycine max) [17]; [28]): 90 | Soybean plant response rating (0 to 100 scale) (soybean (Glycine max) [17]; [29]): 90 | Horseweed plant response rating (0-100) [18, 28]: 50 | Horseweed plant response rating (0 to 100 scale) [18, 29]: 80 | Blackgrass plant response rating (0-100) [19, 28]: 80 | Blackgrass plant response rating (0 to 100 scale) [19, 29]: 90 | Ryegrass, Italian plant response rating (0-100) [20, 28]: 80 | Ryegrass, Italian plant response rating (0 to 100 scale) [20, 29]: 90 | Amaranth, Palmer plant response rating (0-100) [21, 28]: 50 | Amaranth, Palmer / Pigweed, Palmer plant response rating (0 to 100 scale) [21, 29]: 70 | Wheat plant response rating (0-100) [22, 28]: 90 | Wheat plant response rating (0 to 100 scale) [22, 29]: 90 | Kochia plant response rating (0-100) (kochia (Bassia scoparia) [23]; [28]): 70 | Kochia plant response rating (0 to 100 scale) (kochia (Bassia scoparia) [23]; [29]): 70 | Barnyardgrass plant response rating (0-100) [24, 28]: 100 | Barnyardgrass plant response rating (0 to 100 scale) [24, 29]: 100 | Galium plant response rating (0-100) [25, 28]: 80 | Galium plant response rating (0 to 100 scale) [25, 29]: 90 | Corn plant response rating (0-100) (corn (Zea mays) [26]; [28]): 100 | Corn plant response rating (0 to 100 scale) (corn (Zea mays) [26]; [29]): 100 | Foxtail, Green plant response rating (0-100) [27, 28]: 90 | Foxtail, Green plant response rating (0 to 100 scale) [27, 29]: 90
